Reference: US5925618A, “Peptides useful as somatostatin antagonists” (American Cyanamid Company, priority 1998, dated 1999)
Square brackets hold non-standard residues; d marks the D form. Peptide text beside a SMILES is read from it.

Molecular target: T1, rat SSTR2 (Rattus norvegicus, UniProt P30680)
T1 construct: expressed in transfected cells; host or cells: GH4C1 rat pituitary tumor cells
Test: cAMP accumulation in forskolin-stimulated GH4 C1/SSTR2 cells
Type: cell-based
Details: for Emax: GH4-C1, test peptide 2 μM, read-out: cAMP Assay, Intrinsic activity (percent reversal of SSTR2 activation by SRIF or MK678)
Excerpt: A primary effect of SRIF upon mammalian cells is the reduction of cyclic adenosine 3',5'-monophosphate(cAMP) levels, via inhibition of adenylyl cyclase. This is the basis of a common assay for SRIF agonists and antagonists, whereby SRIF agonists reduce artificially stimulated cAMP levels, and SRIF antagonists reverse the effect of SRIF. The rat pituitary tumor cell line GH4 C1 predominantly expresses SSTR2, and responds to SRIF and to forskolin, a stimulator of adenylate cyclase (see C. M. Eppler, et al., J. Biol. Chem., 267, 15603-15612, 1992, incorporated herein by reference). A highly sensitive assay for SRIF agonists and antagonists results from additionally transfecting GH4 C1 cells with the cloned rat SSTR2, (see L. A. Price, et al., Molecular and Cellular Biology, 15, 6188-6195, 1995, incorporated herein by reference). This increases the response to SRIF and provides a greater dynamic range for the measurement of SRIF antagonist activity.
Stimulation of cells. GH4 C1 /SSTR2 cells, grown in DMEM with 10% bovine serum, are released from a tissue culture dish by incubation for several minutes at 37° C. with PBS containing 0.5 mM EDTA. Cells are washed in induction buffer (PBS containing 100 μM IBMX (an inhibitor of cAMP breakdown) and 2 mM CaCl2) at room temperature, and resuspended at 2×10^6 /mL in induction buffer. Into each well of a 96-well tray are added 50 μL of a 2× concentration of stimulants in induction buffer. These include (at final concentration) 1.25 μM forskolin, 100 nM SRIF or 10 nM of the SSTR2-selective agonist MK678 and test peptides at various concentrations. To initiate stimulation of the cells, 50 μL (100,000) cells are added to each well, mixed by shaking 10 seconds on a plate shaker and placed at 37° C. for 15 minutes. Stimulation is arrested and cells are lysed by adding 15 μL 0.33N HCl to each well and incubating the plate for 30 minutes at 37° C. Samples are neutralized by addition of 15 μL 0.25N NaOH/50 mM Hepes pH 7.4. Baseline cAMP levels are determined in samples with no added forskolin or SRIF, and each treatment is performed in triplicate.
cAMP assay. To measure accumulated cAMP in the samples, a radioimmunoassay is employed. The scintillation proximity assay (SPA, Amersham, Arlington Heights, Ill.) allows the rapid measurement of ^125 I cAMP bound to a specific antibody without separating bound radioligand from free radioligand. Each of the following reagents (50 μL) are added per well in a 96-well tray: supernatants from the cell stimulation; ^125 I cAMP; SPA beads conjugated to monkey anti-rabbit IgG antibodies; and rabbit anti-cAMP antibodies. For the standard curve, known amounts of cAMP (0.2-12.8 pmol) are added in place of cell supernatants. The 96-well tray is sealed, shaken at room temperature overnight and measured for bound radioligand in a MicroBeta liquid scintillation counter (Wallac, Gaithersburg, Md.). The standard curve is determined for each experiment by performing a nonlinear regression (exponential decay) analysis of cpm measured for the cAMP standards vs. their log concentrations, and test sample values are determined by using Prism software (Graphpad Software Inc., San Diego, Calif.) and are shown in Table II and FIG. 1. FIG. I illustrates the antagonist activity of Peptide 1.
The intrinsic activity of an SRIF antagonist is the percent reversal of the SSTR2, activation by SRIF or MK678, wherein 0% is defined by cAMP levels in samples treated with forskolin plus SRIF or MK678 and 100% is the cAMP level measured after treatment with forskolin alone. Therefore, increased intrinsic activity of a test compound indicates increased antagonist activity of said test compound.
FIG. […]
An inverse agonist is a compound that is not only a pure antagonist (i.e. lacking agonist activity), but also blocks the constitutive activity of an unoccupied receptor. One indication of inverse agonist activity is the ability of a SRIF antagonist to increase cAMP levels in the absence of added SRIF. […]

[1] = forskolin stimulated cells, agonist alone or with 10 μM peptide 1

T1 sequence (P30680 whole entry): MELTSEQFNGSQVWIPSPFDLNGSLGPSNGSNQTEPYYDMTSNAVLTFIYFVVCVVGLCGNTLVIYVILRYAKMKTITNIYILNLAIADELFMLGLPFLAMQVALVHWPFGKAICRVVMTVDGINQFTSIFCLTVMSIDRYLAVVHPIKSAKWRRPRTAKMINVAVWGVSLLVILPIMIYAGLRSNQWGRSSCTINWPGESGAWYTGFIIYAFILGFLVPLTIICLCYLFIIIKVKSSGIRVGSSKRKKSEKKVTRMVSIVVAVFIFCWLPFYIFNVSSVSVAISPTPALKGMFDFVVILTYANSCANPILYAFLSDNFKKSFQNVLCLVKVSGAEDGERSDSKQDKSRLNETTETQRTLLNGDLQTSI

Emax [%]	Compound	further results
13	CC[C@@H](C)[C@@H](NC(=O)[C@@H](Cc1ccccc1)NC(=O)[C@@H](C)NC(C)=O)C(=O)N[C@H](CCCNC(=N)N)C(=O)N[C@H](Cc1c[nH]c2ccccc12)C(=O)N[C@H](Cc1ccccc1)C(N)=O [Peptide 2, a-f-i-r-w-f] (Ac-[dA][dF][dI][dR][dW][dF]-NH2)	
9.33	CC[C@@H](C)[C@@H](NC(=O)[C@@H](C)NC(=O)[C@@H](Cc1c[nH]cn1)NC(C)=O)C(=O)N[C@H](CCCNC(=N)N)C(=O)N[C@H](Cc1c[nH]c2ccccc12)C(=O)N[C@H](Cc1ccccc1)C(N)=O [Peptide 3, h-a-i-r-w-f] (Ac-[dH][dA][dI][dR][dW][dF]-NH2)	
41.8	CC(=O)N[C@H](Cc1c[nH]cn1)C(=O)N[C@H](Cc1ccccc1)C(=O)N[C@H](C)C(=O)N[C@H](CCCNC(=N)N)C(=O)N[C@H](Cc1c[nH]c2ccccc12)C(=O)N[C@H](Cc1ccccc1)C(N)=O [Peptide 4, h-f-a-r-w-f] (Ac-[dH][dF][dA][dR][dW][dF]-NH2)	
44.1	CC[C@@H](C)[C@@H](NC(=O)[C@@H](Cc1ccccc1)NC(=O)[C@@H](Cc1c[nH]cn1)NC(C)=O)C(=O)N[C@H](C)C(=O)N[C@H](Cc1c[nH]c2ccccc12)C(=O)N[C@H](Cc1ccccc1)C(N)=O [Peptide 5, h-f-i-a-w-f] (Ac-[dH][dF][dI][dA][dW][dF]-NH2)	
2.76	CC[C@@H](C)[C@@H](NC(=O)[C@@H](Cc1c[nH]cn1)NC(C)=O)C(=O)N[C@H](CCCNC(=N)N)C(=O)N[C@H](Cc1c[nH]c2ccccc12)C(=O)N[C@H](Cc1ccccc1)C(N)=O [Peptide 8, h-i-r-w-f] (Ac-[dH][dI][dR][dW][dF]-NH2)	
29.1	CC[C@@H](C)[C@@H](NC(=O)[C@@H](Cc1ccccc1)NC(=O)[C@@H](Cc1c[nH]cn1)NC(C)=O)C(=O)N[C@H](CCCNC(=N)N)C(=O)N[C@H](Cc1c[nH]c2ccccc12)C(N)=O [Peptide 12, h-f-i-r-w] (Ac-[dH][dF][dI][dR][dW]-NH2)	
46.7	CC[C@@H](C)[C@@H](NC(=O)[C@@H](Cc1ccccc1)NC(=O)[C@@H](Cc1c[nH]cn1)NC(C)=O)C(=O)N[C@H](CCCNC(=N)N)C(=O)N[C@H](Cc1c[nH]c2ccccc12)C(=O)N[C@@H](Cc1ccccc1)C(N)=O [Peptide 18, h-f-i-r-w-F] (Ac-[dH][dF][dI][dR][dW]F-NH2)	

Further lines, the compound ahead of its results:

Compound	Emax [%]	further results
C=C[C@@]1(C)CC(=O)[C@]2(O)[C@@]3(C)[C@@H](O)CCC(C)(C)[C@@H]3[C@H](O)[C@H](OC(C)=O)[C@@]2(C)O1 [Forskolin, forskolin, reference compound]		cAMP (Forskolin 1.25 μM alone): 3.04 pM per 4 × 10^4 cells
CC(C)[C@@H]1NC(=O)[C@H](CCCCN)NC(=O)[C@@H](Cc2c[nH]c3ccccc23)NC(=O)[C@H](Cc2ccc(O)cc2)NC(=O)[C@H](C)N(C)C(=O)[C@H](Cc2ccccc2)NC1=O [MK678, reference compound]		cAMP (Forskolin 1.25 μM + MK 678 10 nM, no peptide 1): 0.91 pM per 4 × 10^4 cells; Maximum (cAMP level of agonist dose response) [1]: 6.431; Minimum (cAMP level of agonist dose response) [1]: 2.673
CC[C@@H](C)[C@@H](NC(=O)[C@@H](Cc1ccccc1)NC(=O)[C@@H](Cc1c[nH]cn1)NC(C)=O)C(=O)N[C@H](CCCNC(=N)N)C(=O)N[C@H](C)C(=O)N[C@H](Cc1ccccc1)C(N)=O [Peptide 6, h-f-i-r-a-f] (Ac-[dH][dF][dI][dR][dA][dF]-NH2)	13.4	
CC[C@@H](C)[C@@H](NC(=O)[C@@H](Cc1ccccc1)NC(C)=O)C(=O)N[C@H](CCCNC(=N)N)C(=O)N[C@H](Cc1c[nH]c2ccccc12)C(=O)N[C@H](Cc1ccccc1)C(N)=O [Peptide 7, f-i-r-w-f] (Ac-[dF][dI][dR][dW][dF]-NH2)	-7.2	
CC(=O)N[C@H](Cc1c[nH]cn1)C(=O)N[C@H](Cc1ccccc1)C(=O)N[C@H](CCCNC(=N)N)C(=O)N[C@H](Cc1c[nH]c2ccccc12)C(=O)N[C@H](Cc1ccccc1)C(N)=O [Peptide 9, h-f-r-w-f] (Ac-[dH][dF][dR][dW][dF]-NH2)	6.36	
CC[C@@H](C)[C@@H](NC(=O)[C@@H](Cc1ccccc1)NC(=O)[C@@H](Cc1c[nH]cn1)NC(C)=O)C(=O)N[C@H](Cc1c[nH]c2ccccc12)C(=O)N[C@H](Cc1ccccc1)C(N)=O [Peptide 10, h-f-i-w-f] (Ac-[dH][dF][dI][dW][dF]-NH2)	25.3	
CC[C@@H](C)[C@@H](NC(=O)[C@@H](Cc1ccccc1)NC(=O)[C@@H](Cc1c[nH]cn1)NC(C)=O)C(=O)N[C@H](CCCNC(=N)N)C(=O)N[C@H](Cc1ccccc1)C(N)=O [Peptide 11, h-f-i-r-f] (Ac-[dH][dF][dI][dR][dF]-NH2)	12.1	
CC[C@@H](C)[C@@H](NC(=O)[C@@H](Cc1ccccc1)NC(=O)[C@H](Cc1c[nH]cn1)NC(C)=O)C(=O)N[C@H](CCCNC(=N)N)C(=O)N[C@H](Cc1c[nH]c2ccccc12)C(=O)N[C@H](Cc1ccccc1)C(N)=O [Peptide 13, H-f-i-r-w-f] (Ac-H[dF][dI][dR][dW][dF]-NH2)	26.2	
CC[C@@H](C)[C@@H](NC(=O)[C@H](Cc1ccccc1)NC(=O)[C@@H](Cc1c[nH]cn1)NC(C)=O)C(=O)N[C@H](CCCNC(=N)N)C(=O)N[C@H](Cc1c[nH]c2ccccc12)C(=O)N[C@H](Cc1ccccc1)C(N)=O [Peptide 14, h-F-i-r-w-f] (Ac-[dH]F[dI][dR][dW][dF]-NH2)	29.6	
CC[C@H](C)[C@H](NC(=O)[C@@H](Cc1ccccc1)NC(=O)[C@@H](Cc1c[nH]cn1)NC(C)=O)C(=O)N[C@H](CCCNC(=N)N)C(=O)N[C@H](Cc1c[nH]c2ccccc12)C(=O)N[C@H](Cc1ccccc1)C(N)=O [Peptide 15, h-f-I-r-w-f] (Ac-[dH][dF]I[dR][dW][dF]-NH2)	9.71	
CC[C@@H](C)[C@@H](NC(=O)[C@@H](Cc1ccccc1)NC(=O)[C@@H](Cc1c[nH]cn1)NC(C)=O)C(=O)N[C@@H](CCCNC(=N)N)C(=O)N[C@H](Cc1c[nH]c2ccccc12)C(=O)N[C@H](Cc1ccccc1)C(N)=O [Peptide 16, h-f-i-R-w-f] (Ac-[dH][dF][dI]R[dW][dF]-NH2)	43.6	
CC[C@@H](C)[C@@H](NC(=O)[C@@H](Cc1ccccc1)NC(=O)[C@@H](Cc1c[nH]cn1)NC(C)=O)C(=O)N[C@H](CCCNC(=N)N)C(=O)N[C@@H](Cc1c[nH]c2ccccc12)C(=O)N[C@H](Cc1ccccc1)C(N)=O [Peptide 17, h-f-i-r-W-f] (Ac-[dH][dF][dI][dR]W[dF]-NH2)	50.2	
CC[C@@H](C)[C@@H](NC(=O)[C@@H](Cc1ccc(O)cc1)NC(=O)[C@@H](CCCCN)NC(C)=O)C(=O)N[C@H](CCCNC(=N)N)C(=O)N[C@H](Cc1c[nH]c2ccccc12)C(=O)N[C@H](Cc1ccccc1)C(N)=O [Peptide 19, k-y-i-r-w-f] (Ac-[dK][dY][dI][dR][dW][dF]-NH2)	33.3	
CC[C@@H](C)[C@@H](NC(=O)[C@@H](Cc1ccc(O)cc1)NC(=O)[C@@H](Cc1c[nH]cn1)NC(C)=O)C(=O)N[C@H](CCCNC(=N)N)C(=O)N[C@H](Cc1c[nH]c2ccccc12)C(=O)N[C@H](Cc1ccccc1)C(N)=O [Peptide 20, h-y-i-r-w-f] (Ac-[dH][dY][dI][dR][dW][dF]-NH2)	56.5	
CC[C@@H](C)[C@@H](NC(=O)[C@@H](Cc1c[nH]c2ccccc12)NC(=O)[C@@H](Cc1c[nH]cn1)NC(C)=O)C(=O)N[C@H](CCCNC(=N)N)C(=O)N[C@H](Cc1c[nH]c2ccccc12)C(=O)N[C@H](Cc1ccccc1)C(N)=O [Peptide 21, h-w-i-r-w-f] (Ac-[dH][dW][dI][dR][dW][dF]-NH2)	54.7	
